This note sets out measurements from patent US20110039885A1, “METHODS FOR INCREASING ENDOTHELIAL PROGENITOR CELLS” (FibroGen, Inc., priority 2007, published 2011).

Structures are written as SMILES.

What all share (format): in vivo, mouse
Assay [1] deals with endothelial progenitor cells (EPCs), double positive KDR+/CD34+ cells, in blood. The assay is described as follows: Blood EPC levels by FACS after oral dosing in mice. The note with it: for Blood EPCs / Percent Blood EPCs: blood 6 h after final dose; for Blood EPCs Fold Increase Over Control / Percent Blood EPCs Fold Increase Over Control: vs vehicle control. As to the method: (§1) To examine the effect of compounds and methods of the present invention on endothelial progenitor cell (EPC) mobilization and EPC levels, the following studies were performed. Male Swiss-Webster mice were administered various compounds of the present invention via oral gavage using a ball-tipped gavage needle. Animals treated by oral gavage received a 10 ml/kg volume of either 0.5% carboxymethyl cellulose (CMC) with 0.1% Polysorbate 80 (vehicle control) or various doses (10-100 mg/kg) of a compound of the present invention in 0.5% CMC with 0.1% Polysorbate 80. Animals were dosed once daily for 3 or 4 days. Six hours after the final dosing, 200 μl blood samples were collected for detection of EPCs by FACS analysis as previously described. (Vasa et al. (2001) Circ Res 89:e1-e7.) Briefly, mononuclear cells were isolated from whole blood samples by erythrocyte depletion using red blood cell lysis buffer (eBioscience) according to the manufacturer's instructions. The remaining cells were incubated for one hour with monoclonal antibodies directed against mouse CD34 and mouse KDR, cell surface markers for EPCs (BD Pharmingen). Following incubation with the anti-CD34 and anti-KDR monoclonal antibodies, the samples were washed three times with sort buffer (PBS, 1% fetal bovine serum) and resuspended in sort buffer containing 50 μg/ml of propidium iodide. Samples were then analyzed for the presence and quantitation of EPCs by flow cytometry (FACS Calibur, Becton Dickinson). The cytometer was set to acquire 10 000 events. Two or three samples obtained from each animal were analyzed and the average recorded. EPCs were determined as double positive KDR+/CD34+ cells.

In assay [2] the test system is endothelial progenitor cells (EPCs), KDR+/CD34+ cells, in bone marrow. Nature of the assay: Bone marrow EPC levels by FACS after oral dosing in mice. The note with it: for Percent Bone Marrow EPCs: tibia bone marrow 6 h after final dose; for Percent Bone Marrow EPCs Fold Increase Over Control: vs vehicle control. As for the experimental part: as §1
To examine the effect of compounds and methods of the present invention on EPC levels in bone marrow, the following studies were performed. Male Swiss-Webster mice were administered various compounds of the present invention via oral gavage using a ball-tipped gavage needle. Animals treated by oral gavage received a 10 ml/kg volume of either 0.5% carboxymethyl cellulose (CMC) with 0.1% Polysorbate 80 (vehicle control) or various doses (10-100 mg/kg) of a compound of the present invention in 0.5% CMC with 0.1% Polysorbate 80. Animals were dosed once daily for 3 or 4 days. Six hours after the final dosing, bone marrow samples were taken from one tibia of each animal and suspended in buffer (PBS with 1% fetal bovine serum). Bone marrow suspensions were then filtered through nylon filters to remove stromal cells. Following filtration, the remaining cells were counted manually using a hemocytometer. Detection and quantitation of EPCs was performed by FACS analysis as described above in Example 1.

Assay [3] concerns colony-forming unit-endothelial cells (CFU-EC) from blood. The assay is described as follows: EPC colony forming assay (CFU-EC) ex vivo, blood of dosed mice. The note with it: for Blood CFU-EC: blood 6 h after final dose, 12 days culture; for Blood CFU-EC Fold Increase Over Control: vs vehicle control. As for the experimental part: To examine the effect of compounds and methods of the present invention on increasing EPCs, wherein the EPCs are functional EPCs, i.e., EPCs that are able to differentiate into mature endothelial cells, the following studies were performed in which the frequency of endothelial colony-forming cells was evaluated ex vivo. In one series of experiments, male Swiss-Webster mice were administered various compounds of the present invention via oral gavage using a ball-tipped gavage needle. Animals treated by oral gavage received a 10 ml/kg volume of either 0.5% carboxymethyl cellulose (CMC) with 0.1% Polysorbate 80 (vehicle control) or various doses (10-100 mg/kg) of a compound of the present invention in 0.5% CMC with 0.1% Polysorbate 80. Animals were dosed once daily for 3 or 4 days. Six hours after the final dosing, 200 μl blood samples were collected for analysis of EPC function and differentiation using an EPC colony forming assay. EPC colony forming assays were carried out as previously described. (Murphy et al. (2007) Arterioscler Thromb Vasc Biol 27:936-942.) Briefly, mononuclear cells were isolated from whole blood samples by erythrocyte depletion using red blood cell lysis buffer (eBioscience) according to the manufacturer's instructions. The remaining cells (50,000 cells/well) were plated on fibronectin coated 24-well dishes (BD, BioSciences Discovery Labware) and incubated in endothelial growth media (EGM-2 media, Cambrex) for 12 days. At the end the incubation period, EPC colonies were counted.

The test system of assay [4] is colony-forming unit-endothelial cells (CFU-EC) from bone marrow. The assay is described as follows: EPC colony forming assay (CFU-EC) ex vivo, bone marrow of dosed mice. The settings on record: for Bone Marrow CFU-EC: tibia bone marrow 6 h after final dose, 12 days culture; for Bone Marrow CFU-EC Fold Increase Over Control: vs vehicle control. As to the method: EPC colony forming assays were carried out as previously described. (Murphy et al. (2007) Arterioscler Thromb Vasc Biol 27:936-942.) Briefly, mononuclear cells were isolated from whole blood samples by erythrocyte depletion using red blood cell lysis buffer (eBioscience) according to the manufacturer's instructions. The remaining cells (50,000 cells/well) were plated on fibronectin coated 24-well dishes (BD, BioSciences Discovery Labware) and incubated in endothelial growth media (EGM-2 media, Cambrex) for 12 days. At the end the incubation period, EPC colonies were counted. In another series of experiments, male Swiss-Webster mice were administered various compounds of the present invention via oral gavage using a ball-tipped gavage needle. Animals treated by oral gavage received a 10 ml/kg volume of either 0.5% carboxymethyl cellulose (CMC) with 0.1% Polysorbate 80 (vehicle control) or various doses (10-100 mg/kg) of a compound of the present invention in 0.5% CMC with 0.1% Polysorbate 80. Animals were dosed once daily for 3 or 4 days. Six hours after the final dosing, bone marrow samples were taken from one tibia of each animal. Bone marrow samples were then analyzed for EPC function and differentiation using an EPC colony forming assay as described above.

[5] abbreviates: 60 mg/kg oral gavage once daily, 3 days.
Where [6] appears, read: 100 mg/kg oral gavage once daily, 4 days.

Turning to `COc1ccc(Oc2ccc3c(O)c(C(=O)NCC(=O)O)ncc3c2)cc1` [Compound A, {[4-Hydroxy-7-(4-methoxy-phenoxy)-isoquinoline-3-carbonyl]-amino}-acetic acid], the “Blood EPCs” value in assay [1] (setting [5]) is listed as 24.7 cells/μl; in assay [1] (setting [6]), 309.0 cells/μl. Besides, the “Percent Blood EPCs” value in assay [1] (setting [5]) was found to be 2.6 % gated cells; in assay [1] (setting [6]), 3.2 % gated cells. Further, the “Blood EPCs Fold Increase Over Control” value in assay [1] (60 mg/kg oral, 3 days) is 2.4 fold; in assay [1] (100 mg/kg oral, 4 days), 8.4 fold. Besides, the “Percent Blood EPCs Fold Increase Over Control” value in assay [1] (60 mg/kg oral, 3 days) was found to be 2.0 fold; in assay [1] (100 mg/kg oral, 4 days) it was 4.7 fold. Also, the “Percent Bone Marrow EPCs” value in assay [2] (setting [5]) came to 6.7 % gated cells; in assay [2] (setting [6]), 14.1 % gated cells. In addition, the “Percent Bone Marrow EPCs Fold Increase Over Control” value came to 2.0 fold in assay [2] (60 mg/kg oral, 3 days) and 1.8 fold in assay [2] (100 mg/kg oral, 4 days). Besides, the “Blood CFU-EC” value in assay [3] (setting [5]) was 16.8 colonies/50,000 cells; in assay [3] (setting [6]), 17.8 colonies/50,000 cells. The “Blood CFU-EC Fold Increase Over Control” value is on record as 8.4 fold in assay [3] (60 mg/kg oral, 3 days) and 3.63 fold in assay [3] (100 mg/kg oral, 4 days). The “Bone Marrow CFU-EC” value in assay [4] (setting [5]) is reported as 29.0 colonies/50,000 cells; in assay [4] (setting [6]), 24.8 colonies/50,000 cells. The “Bone Marrow CFU-EC Fold Increase Over Control” value in assay [4] (60 mg/kg oral, 3 days) is given as 3.0 fold; in assay [4] (100 mg/kg oral, 4 days) it was 3.2 fold.

As to `Cc1nc(C(=O)NCC(=O)O)c(O)c2ccc(Oc3ccccc3)cc12` [Compound B, [(4-Hydroxy-1-methyl-7-phenoxy-isoquinoline-3-carbonyl)-amino]-acetic acid], the “Blood EPCs” value was 10.4 cells/μl in assay [1] (setting [5]) and 304.0 cells/μl in assay [1] (setting [6]). Further, the “Percent Blood EPCs” value in assay [1] (setting [5]) is reported as 1.0 % gated cells; in assay [1] (setting [6]), 3.0 % gated cells. Moreover, the “Blood EPCs Fold Increase Over Control” value amounted to 1.0 fold in assay [1] (60 mg/kg oral, 3 days) and 8.2 fold in assay [1] (100 mg/kg oral, 4 days). The “Percent Blood EPCs Fold Increase Over Control” value in assay [1] (60 mg/kg oral, 3 days) stood at 0.8 fold; in assay [1] (100 mg/kg oral, 4 days) it was 4.3 fold. Besides, the “Percent Bone Marrow EPCs” value in assay [2] (setting [5]) was 9.0 % gated cells; in assay [2] (setting [6]), 16.1 % gated cells. Further, the “Percent Bone Marrow EPCs Fold Increase Over Control” value in assay [2] (60 mg/kg oral, 3 days) is reported as 2.7 fold; in assay [2] (100 mg/kg oral, 4 days), 2.1 fold. In addition, the “Blood CFU-EC” value is recorded as 12.4 colonies/50,000 cells in assay [3] (setting [5]) and 9.3 colonies/50,000 cells in assay [3] (setting [6]). Also, the “Blood CFU-EC Fold Increase Over Control” value in assay [3] (60 mg/kg oral, 3 days) is 6.2 fold; in assay [3] (100 mg/kg oral, 4 days), 1.9 fold. For the same compound, the “Bone Marrow CFU-EC” value in assay [4] (setting [5]) was 22.0 colonies/50,000 cells; in assay [4] (setting [6]), 22.4 colonies/50,000 cells. Also, the “Bone Marrow CFU-EC Fold Increase Over Control” value in assay [4] (60 mg/kg oral, 3 days) is 2.2 fold; in assay [4] (100 mg/kg oral, 4 days), 2.9 fold.
